{"source": "patent US10258607B2", "about": "“Method of increasing intratumoral pHe and reducing acid-mediated invasion” (H. Lee Moffitt Cancer Center and Research Institute, Inc., priority 2009, dated 2019)", "key": {"[1]": {"system": "luciferase-expressing PC3M prostate cancer cells", "assay": "In vivo experimental lung metastasis model, IEPA in drinking water", "design": "species or system mice", "method": "FIG. 10 illustrates (A) the chemical structure of IEPA and (B) an experimental timetable. For the experiment mice (n=10) were started on 200 mM IEPA, or tap water (n=10) at time 0. Four days later 5×10^6 PC3M cells were injected intravenously in to the mice. Images were acquired weekly, and animal were euthanized at week 6 post-injections\nMice were imaged in a ventral view weekly for 6 weeks using the in vivo Imaging System (IVIS, Xenogen).\nA region of interest (ROI) was manually selected over the signal intensity. The area of the ROI was kept constant and the intensity was recorded as maximum [photons/sec].\nIn these experiments, 10 mice were provided with ad libidum 200 mM of 2-imidazole-1-yl-3-ethoxycarbonylpropionic acid (IEPA) in their drinking water and 10 mice were maintained on water.\nFour days after initiation of therapy, all animals were injected with luciferase-expressing PC3M prostate cancer cells. […] NMR in biomedicine 2002; 15(2):114-9; van Sluis R, et al., In vivo imaging of extracellular pH using 1H MRSI. Magn Reson Med 1999; 41(4):743-50]."}, "[2]": {"conditions": "high doses; cited from earlier work"}, "[3]": {"system": "spontaneous and experimental metastases", "conditions": "chronic consumption of sodium bicarbonate solution; cited from earlier work"}, "[4]": {"conditions": "25-50 grams daily, greater than 1 year, patients with renal tubular acidosis and sickle cell anemia; cited from earlier work"}, "[5]": {"system": "widely metastatic renal cancer", "assay": "Case report: patient with metastatic renal cancer"}, "[6]": {"conditions": "cited from earlier work"}, "[7]": {"conditions": "self-administered 40 grams of NaHCO3 daily, scans Dec. 5, 2007 and Apr. 18, 2008"}}, "note": "Entries after “also recorded” stand apart in the source; their conditions may differ.", "data": [{"molecule": "CCOC(=O)CC(C(=O)O)n1ccnc1", "note": "(stereo not drawn) [IEPA, 2-imidazole-1-yl-3-ethoxycarbonylpropionic acid]", "values": [{"measurement": "animal weight / weight gain and grooming behavior vs controls", "setting": "[1]; 200 mM IEPA in drinking water", "value": "not different from controls"}, {"measurement": "lung metastases compared to control group", "setting": "[1]; 200 mM IEPA in drinking water from 4 days before i.v. injection of 5×10^6 PC3M cells, weekly imaging for 6 weeks, p<0.02", "value": "significantly fewer lung metastases; also recorded: significantly inhibits lung metastasis"}, {"measurement": "mean in vivo photon count, whole animal and lungs, vs tap water group", "setting": "[1]; 200 mM IEPA in drinking water, p<0.002 Wilcoxon two sample test", "value": "significantly different"}, {"measurement": "toxicity in vivo", "setting": "[2]", "value": "non-toxic at high doses"}]}, {"molecule": "O=C([O-])O.[Na+]", "note": "[NaHCO3, sodium bicarbonate]", "values": [{"measurement": "spontaneous and experimental metastases", "setting": "[3]", "value": "inhibited"}, {"measurement": "adverse effects on chronic administration", "setting": "[4]", "value": "without adverse affects"}, {"measurement": "tolerability", "setting": "[5]; \"very high\" bicarbonate administration for nearly 1 year", "value": "without complication"}, {"measurement": "duration of stable tumor", "setting": "[5]; person, approximately 60 grams of bicarbonate in water daily with vitamins, supplements, no conventional therapy", "value": 10, "unit": "months"}, {"measurement": "central necrosis of tumors on follow-up CT scan", "setting": "[5]; [7]", "value": "no longer present"}, {"measurement": "liver lesions on CT scans", "setting": "[5]; [7]", "value": "some of the liver lesions have increased in size, some have decreased in size, and some have remained stable"}]}, {"molecule": "CCN(CC)CCNC(=O)c1c(C)[nH]c(/C=C2\\C(=O)Nc3ccc(F)cc32)c1C", "note": "[Sutent]", "values": [{"measurement": "tumor response", "setting": "[5]; first line treatment of liver metastatic disease", "value": "the tumor progressed"}]}, {"molecule": "C[N+](C)(C)CCN", "note": "[cholamine chloride]", "values": [{"measurement": "pKa", "setting": "[6]", "value": 7.1}]}, {"molecule": "NCCCC[C@H](N)C(=O)O", "note": "[free-base lysine, L-lysine]", "values": [{"measurement": "pKa1", "setting": "[6]; L-lysine with three pKa's", "value": 2.20}, {"measurement": "pKa2", "setting": "[6]; L-lysine with three pKa's", "value": 8.90}, {"measurement": "pKa3", "setting": "[6]; L-lysine with three pKa's", "value": 10.28}]}]}
